# What was measured:
# Assay in all cases: relative viability (nuclei count vs DMSO), 5 days (fraction); higher = more cells survive
# [1] = compound: CCc1c2c(nc3ccc(OC(=O)N4CCC(N5CCCCC5)CC4)cc13)-c1cc3c(c(=O)n1C2)COC(=O)[C@]3(O)CC [Irinotecan] + CC(=O)Nc1cccc(-n2c(=O)n(C3CC3)c(=O)c3c(Nc4ccc(I)cc4F)n(C)c(=O)c(C)c32)c1 [Trametinib] (partner 0.02 µM)
# Method in brief: (§1)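 Lung cancer cell lines were pin-tool dosed in 1536-well plates on the day after seeding, with either a lone drug or a fixed anchor-drug dose plus five library-drug doses (not always all listed) in √10 steps. Nuclei were counted on 4× images after 5 days. Relative viability is the ratio of treated-well to vehicle-well nuclei counts, with each value a median of duplicate plates.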
# [2] = compound: Cn1cc(-c2cnc3ccc4ccc(CS(=O)(=O)NCc5ccccn5)cc4c(=O)c3c2)cn1 [MK-8033] + NC(=O)Nc1cc(-c2cccc(F)c2)sc1C(=O)N[C@H]1CCCNC1 [AZD7762] (partner 0.2 µM)
# Method in brief: as §1
# [3] = compound: Cn1cc(-c2cnc3ccc4ccc(CS(=O)(=O)NCc5ccccn5)cc4c(=O)c3c2)cn1 [MK-8033] + O=C(c1cc(Cc2n[nH]c(=O)c3ccccc23)ccc1F)N1CCN(C(=O)C2CC2)CC1 [Olaparib] (partner 8 µM)
# Method in brief: as §1
# [4] = compound: CC[C@@H](C)CNCC(=O)N1CCC2=C([C@@H]1COC3=CC=CC(=C3)C)C=CS2 [RU-SKI 43] + CC(=O)Nc1cccc(-n2c(=O)n(C3CC3)c(=O)c3c(Nc4ccc(I)cc4F)n(C)c(=O)c(C)c32)c1 [Trametinib] (partner 0.02 µM)
# Method in brief: as §1
Cell Line,relative viability ([1]; first compound 0.6325 µM),relative viability ([1]; first compound 2 µM),relative viability ([1]; first compound 6.325 µM),relative viability ([1]; first compound 20 µM),relative viability ([2]; first compound 0.02 µM),relative viability ([2]; first compound 0.06325 µM),relative viability ([2]; first compound 0.2 µM),relative viability ([2]; first compound 0.6325 µM),relative viability ([2]; first compound 2 µM),relative viability ([3]; first compound 0.02 µM),relative viability ([3]; first compound 0.06325 µM),relative viability ([3]; first compound 0.2 µM),relative viability ([3]; first compound 0.6325 µM),relative viability ([3]; first compound 2 µM),relative viability ([4]; first compound 0.1 µM),relative viability ([4]; first compound 0.3162 µM),relative viability ([4]; first compound 1 µM),relative viability ([4]; first compound 3.162 µM),relative viability ([4]; first compound 10 µM)
LXF-289,0.653,0.328,0.268,0.197,1.15,1.02,0.958,1.18,1.08,1.06,1.05,1.02,1.12,1.03,0.682,0.743,0.728,0.66,0.66
NCI-H520,0.52,0.397,0.264,0.172,,,,,,0.306,0.326,0.357,0.307,0.315,0.79,1.02,0.654,0.794,0.45
NCI-H661,0.464,0.524,0.535,0.209,,,,,,0.726,0.679,0.774,0.71,0.675,0.539,0.676,0.564,0.564,0.477
NCI-H1299,,,,,,,,,,1.01,0.967,0.927,1,0.982,,,,,
NCI-H1650,0.484,0.526,0.45,0.125,,,,,,0.808,0.646,0.688,0.797,0.713,0.556,0.703,0.533,0.712,0.55
NCI-H1703,,,,,0.109,0.117,0.124,0.108,0.12,0.385,0.304,0.524,0.336,0.598,,,,,
NCI-H2009,0.282,0.34,0.213,0.0843,,,,,,0.716,0.683,0.632,0.712,0.707,0.28,0.295,0.291,0.313,0.244
NCI-H2023,0.589,0.646,0.261,0.0947,,,,,,0.534,0.415,0.439,0.493,0.396,0.585,0.643,0.547,0.685,0.528
NCI-H2228,0.279,0.611,0.402,0.437,,,,,,0.79,0.568,0.52,0.865,0.619,0.37,0.55,0.466,0.396,0.306
SK-LU-1,0.36,0.417,0.399,0.316,,,,,,0.435,0.471,0.426,0.497,0.394,0.43,0.495,0.492,0.49,0.385
SK-MES-1,0.528,0.557,0.311,0.173,,,,,,0.682,0.658,0.677,0.76,0.717,0.482,0.597,0.522,0.52,0.474
SW 1573,,0.432,0.138,0.0925,,,,,,0.537,0.479,0.418,0.567,0.393,0.586,0.591,0.584,0.567,0.39

# Source: the supplement of paper PMC10307832
